Data reported in ChEMBL document CHEMBL4414546, “Identification of Narciclasine as an in Vitro Anti-Inflammatory Component of Cyrtanthus contractus by Correlation-Based Metabolomics” (2019).
Calls of active or inactive are those of the source. No cut-off for these calls is given here.

What was measured:
[1] = system: HUVEC; assay: Antiinflammatory activity in HUVEC assessed as reduction in TNF-alpha-induced ICAM1 cell surface expression at 7.2 nM preincubated for 30 mins followed by TNF-alpha stimulation and measured after 24 hrs by flow cytometry; format: functional, cell-based; settings: Homo sapiens
[2] = system: HUVEC; assay: Antiinflammatory activity in TNF-alpha-induced HUVEC assessed as fold change in COX2 expression at 7.2 nM preincubated for 30 mins followed by addition and measured after 30 mins by immunoblotting analysis (reference value: 0.50); format: functional, Homo sapiens
[3] = system: HUVEC; assay: Antiinflammatory activity in TNF-alpha-induced HUVEC assessed as fold change in IkappaBalpha expression at 7.2 nM preincubated for 30 mins followed by addition and measured after 30 mins by immunoblotting analysis (reference value: 0.50); format: functional, Homo sapiens
[4] = system: HUVEC; assay: Effect on TNF-alpha-induced NFkappaB nuclear translocation in HUVEC at 7.2 nM preincubated for 30 mins followed by TNF-alpha stimulation and measured after 30 mins by fluorescence microscopic analysis; format: cell-based; settings: Homo sapiens
[5] = system: HUVEC; assay: Antiinflammatory activity in HUVEC assessed as reduction in TNF-alpha-induced E-selectin cell surface expression at 7.2 nM preincubated for 30 mins followed by TNF-alpha addition and measured after 4 hrs by ELISA; format: functional, cell-based; settings: Homo sapiens
[6] = system: HUVEC; assay: Antiinflammatory activity in HUVEC assessed as reduction in TNF-alpha-induced E-selectin expression at 7.2 nM preincubated for 30 mins followed by TNF-alpha stimulation and measured after 30 mins by immunoblotting analysis; format: functional, cell-based; settings: Homo sapiens

With `O=C1N[C@@H]2C(=C[C@H](O)[C@@H](O)[C@H]2O)c2cc3c(c(O)c21)OCO3` [NARCICLASINE] the inhibition [1] was “Active”, the “fold change (FC)” value [2] was 0.8 and the “fold change (FC)” value [3] was 0.31. For the same compound, the Activity [4] was “inactive”, the inhibition [5] was “Active” and the inhibition [6] was “Active”.
